Measured values reported in article PMC4304843, “Human Mitochondrial Hsp70 (Mortalin): Shedding Light on ATPase Activity, Interaction with Adenosine Nucleotides, Solution Structure and Domain Organization” (PLoS ONE, 2015).

Assays:
[1] = biological target: T1, human mortalin (mtHsp70, GRP75, HspA9, PBP74) (Homo sapiens, UniProt P38646); assay: isothermal titration calorimetry; assay type: binding
T1 construct: monomeric SEC fraction, alkaline phosphatase treated

human Hsp70-1A = biological target: T2, human Hsp70-1A (Homo sapiens, UniProt P0DMV8); assay: ATPase, EnzChek phosphate assay, Michaelis-Menten fit; assay type: biochemical; conditions: TKP buffer without phosphate pH 7.5, 2 mM Mg2+, 37°C, no co-chaperone
T2 construct: gene HSPA1A; recombinant, expressed in E. coli BL21(DE3) as previously described
Text: ATPase, EnzChek phosphate assay, Michaelis-Menten fit on human Hsp70-1A

T1 sequence (P38646 47-679): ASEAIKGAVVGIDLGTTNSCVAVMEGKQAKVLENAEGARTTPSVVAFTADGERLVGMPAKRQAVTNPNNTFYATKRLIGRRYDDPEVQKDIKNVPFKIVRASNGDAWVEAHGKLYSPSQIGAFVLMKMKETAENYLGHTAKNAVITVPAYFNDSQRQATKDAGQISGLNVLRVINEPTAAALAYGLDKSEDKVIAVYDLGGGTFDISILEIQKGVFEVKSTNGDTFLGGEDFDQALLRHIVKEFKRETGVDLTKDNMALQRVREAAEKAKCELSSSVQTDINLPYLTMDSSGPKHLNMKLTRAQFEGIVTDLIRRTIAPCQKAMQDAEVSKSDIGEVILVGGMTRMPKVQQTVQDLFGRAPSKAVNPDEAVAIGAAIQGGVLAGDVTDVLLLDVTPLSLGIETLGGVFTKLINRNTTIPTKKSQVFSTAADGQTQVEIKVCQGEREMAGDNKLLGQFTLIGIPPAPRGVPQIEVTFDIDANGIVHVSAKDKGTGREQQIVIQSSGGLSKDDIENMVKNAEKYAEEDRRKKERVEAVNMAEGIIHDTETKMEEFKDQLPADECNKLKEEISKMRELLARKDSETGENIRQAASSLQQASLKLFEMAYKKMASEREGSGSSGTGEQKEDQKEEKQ
T2 sequence (P0DMV8 2-641): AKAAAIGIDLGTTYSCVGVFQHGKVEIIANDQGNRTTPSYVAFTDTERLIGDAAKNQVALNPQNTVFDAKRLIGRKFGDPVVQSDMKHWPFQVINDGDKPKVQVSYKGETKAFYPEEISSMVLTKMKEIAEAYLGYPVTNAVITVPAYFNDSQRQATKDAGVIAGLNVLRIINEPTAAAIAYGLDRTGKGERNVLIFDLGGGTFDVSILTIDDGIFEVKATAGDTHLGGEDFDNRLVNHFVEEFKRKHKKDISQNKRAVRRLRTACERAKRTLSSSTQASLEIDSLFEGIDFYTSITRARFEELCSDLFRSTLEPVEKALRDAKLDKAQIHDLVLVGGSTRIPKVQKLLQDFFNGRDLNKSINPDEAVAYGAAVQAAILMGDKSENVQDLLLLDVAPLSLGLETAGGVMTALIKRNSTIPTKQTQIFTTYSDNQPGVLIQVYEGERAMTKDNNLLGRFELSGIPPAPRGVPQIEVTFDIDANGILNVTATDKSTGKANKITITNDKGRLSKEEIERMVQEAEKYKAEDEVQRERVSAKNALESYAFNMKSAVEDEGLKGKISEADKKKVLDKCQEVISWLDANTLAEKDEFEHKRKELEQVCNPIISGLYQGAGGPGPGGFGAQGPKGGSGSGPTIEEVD

Compound	Kd [1]	Km (human Hsp70-1A)
Nc1ncnc2c1ncn2[C@@H]1O[C@H](COP(=O)(O)OP(=O)(O)OP(=O)(O)O)[C@@H](O)[C@H]1O [ATP]	1100 ± 100 nM	270 ± 40 µM
Nc1ncnc2c1ncn2[C@@H]1O[C@H](COP(=O)(O)OP(=O)(O)O)[C@@H](O)[C@H]1O [ADP]	2200 ± 100 nM	
